Target: T1, human M4 muscarinic acetylcholine receptor (Homo sapiens, UniProt P08173)
T1 construct: expressed in transfected cells; host or cells: CHO-K1
T1 sequence (P08173 1-479): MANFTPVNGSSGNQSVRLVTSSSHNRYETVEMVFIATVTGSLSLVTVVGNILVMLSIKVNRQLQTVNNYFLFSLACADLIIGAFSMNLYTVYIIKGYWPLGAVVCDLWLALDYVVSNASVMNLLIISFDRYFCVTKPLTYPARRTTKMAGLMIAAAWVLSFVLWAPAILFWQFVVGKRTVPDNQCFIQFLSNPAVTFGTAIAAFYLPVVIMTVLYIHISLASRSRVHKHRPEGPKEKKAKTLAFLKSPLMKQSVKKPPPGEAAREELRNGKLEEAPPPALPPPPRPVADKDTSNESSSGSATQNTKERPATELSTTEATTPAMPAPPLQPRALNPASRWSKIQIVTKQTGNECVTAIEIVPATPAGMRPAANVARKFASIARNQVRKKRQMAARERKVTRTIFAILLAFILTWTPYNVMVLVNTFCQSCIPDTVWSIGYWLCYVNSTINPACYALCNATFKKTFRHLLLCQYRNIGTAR
Experiment: human FLIPR-based M4 PAM assay (calcium mobilization in CHO-K1 cells with human M4 receptor and Gαqi5)
Format: cell-based
Conditions: inflection point of dose response curve, acetylcholine at 20% of maximum response, FLIPR Tetra, read-out: M4 PAM IP
Protocol: (§1) In a typical experiment the M4 muscarinic acetylcholine receptor modulating activity of the compounds of the present invention was determined in accordance with the following experimental method. CHO-K1 cells stably transfected with human M4 receptor and chimeric G-protein Gαqi5 (Coward P, et al., Analytical Biochemistry, 270:242-248 (1999)) are thawed from liquid N2 storage, resuspended in growth medium, plated in black, clear bottom 384 well plates, and incubated 16-20 hours at 37° C., 5% CO2. On the day of assay, growth medium is removed, the cells are washed 2 times with wash buffer, and cells are incubated in dye loading buffer at 37° C., 5% CO2 for ˜1 hour. Following dye loading the cell plates are placed in a FLIPR Tetra instrument and while monitoring dye fluorescence (excitation […]), 10 uL of test substance at increasing concentrations is added, and fluorescence values are recorded for 4 min. Next, 10 uL of acetylcholine is added (final concentration calculated so as to achieve 20% of the maximum acetycholine response), and the fluorescence reading is continued for 3.5 min. In some cases, a third addition of acetylcholine (final concentration calculated to achieve 70% of the maximal acetylcholine response) is performed. The resulting dose response curves are fit to a 4 parameter logistic equation and the final result is determined as the inflection point (IP) of the curve
as §1, with “CHO-K1” for “In a typical experiment the M4 muscarinic acetylcholine receptor modulating activity of the compounds of the present invention was determined in accordance with the following experimental method. CHO-K1”, “Gαqi5” for “Gαqi5 (Coward P, et al., Analytical Biochemistry, 270:242-248 (1999))”, “performed.” for “performed. The resulting dose response curves are fit to a 4 parameter logistic equation and the final result is determined as the inflection point (IP) of the curve”

EC50 [nM]	Compound
58	CC1(Cn2cc(-c3cc4c(nc3-c3cnc5c(c3)C(=O)NC5)[C@H](F)CC4)cn2)CCCC1 [Example 39A, (R)-3-(7-fluoro-3-(1-((1-methylcyclopentyl)methyl)-1H-pyrazol-4-yl)-6,7-dihydro-5H-cyclopenta[b]pyridin-2-yl)-6,7-dihydro-5H-pyrrolo[3,4-b]pyridin-5-one]
25	CC1(Cn2cc(-c3cc4c(nc3-c3cnc5c(c3)C(=O)NC5)[C@@H](F)CC4)cn2)CCCC1 [Example 39B, (S)-3-(7-fluoro-3-(1-((1-methylcyclopentyl)methyl)-1H-pyrazol-4-yl)-6,7-dihydro-5H-cyclopenta[b]pyridin-2-yl)-6,7-dihydro-5H-pyrrolo[3,4-b]pyridin-5-one]
49	Cc1cc(-c2cnn(CC3(C)CCCC3)c2)c(-c2ccc3c(c2)C(=O)NC3)nc1Cl [Example 40, 6-(6-chloro-5-methyl-3-(1-((1-methylcyclopentyl)methyl)-1H-pyrazol-4-yl)pyridin-2-yl)isoindolin-1-one]
64	CN1Cc2ccc(-c3nc(CO)c(F)cc3-c3cnn(CC4(C)CCCC4)c3)cc2C1=O [Example 41, 6-(5-fluoro-6-(hydroxymethyl)-3-(1-((1-methylcyclopentyl)methyl)-1H-pyrazol-4-yl)pyridin-2-yl)-2-methylisoindolin-1-one]
37	CC1(Cn2cc(-c3ccc(C#N)nc3-c3ccc4c(c3)C(=O)N(CCF)C4)cn2)CCCC1 [Example 42, 6-(2-(2-fluoroethyl)-3-oxoisoindolin-5-yl)-5-(1-((1-methylcyclopentyl)methyl)-1H-pyrazol-4-yl)picolinonitrile]
20	CN1Cc2ccc(-c3nc(C#N)ccc3-c3cnn(CC4(C)CCCC4)c3F)cc2C1=O [Example 43, 5-(5-fluoro-1-((1-methylcyclopentyl)methyl)-1H-pyrazol-4-yl)-6-(2-methyl-3-oxoisoindolin-5-yl)picolinonitrile]
26	CC1(Cn2ncc(-c3ccc(C#N)nc3-c3ccc4c(c3)C(=O)NC4)c2F)CCCC1 [Example 43A, 5-(5-fluoro-1-((1-methylcyclopentyl)methyl)-1H-pyrazol-4-yl)-6-(3-oxoisoindolin-5-yl)picolinonitrile]
54	CC1(Cn2ncc(-c3ccc(C#N)nc3-c3ccc4c(c3)C(=O)N(C3CC3)C4)c2F)CCCC1 [Example 44, 6-(2-cyclopropyl-3-oxoisoindolin-5-yl)-5-(5-fluoro-1-((1-methylcyclopentyl)methyl)-1H-pyrazol-4-yl)picolinonitrile]
41	CC1(Cn2ncc(-c3ccc(C#N)nc3-c3ccc4c(c3)C(=O)N(CC3CC3)C4)c2F)CCCC1 [Example 45, 6-(2-(cyclopropylmethyl)-3-oxoisoindolin-5-yl)-5-(5-fluoro-1-((1-methylcyclopentyl)methyl)-1H-pyrazol-4-yl)picolinonitri1e]
20	CN1Cc2ccc(-c3nc(C#N)c(F)cc3-c3cnn(CC4(C)CCCC4)c3)cc2C1=O [Example 47, 3-fluoro-6-(2-methyl-3-oxoisoindolin-5-yl)-5-(1-((1-methylcyclopentyl)methyl)-1H-pyrazol-4-yl)picolinonitrile]
76	CC1(Cn2cc(-c3cc(F)c(C#N)nc3-c3ccc4c(c3)C(=O)N(CC3CC3)C4)cn2)CCCC1 [Example 48, 6-(2-(cyclopropylmethyl)-3-oxoisoindolin-5-yl)-3-fluoro-5-(1-((1-methylcyclopentyl)methyl)-1H-pyrazol-4-yl)picolinonitrile]
32	CC1(Cn2cc(-c3cc4c(nc3-c3ccc5c(c3)C(=O)N(CCF)C5)CCC4)cn2)CCCC1 [Example 49, 2-(2-fluoroethyl)-6-(3-(1-((1-methylcyclopentyl)methyl)-1H-pyrazol-4-yl)-6,7-dihydro-5H-cyclopenta[b]pyridin-2-yl)isoindolin-1-one]
38	CN1Cc2ccc(-c3ncc(F)cc3-c3cnn(CC4(C)CCCC4)c3)cc2C1=O [Example 50, 6-(5-fluoro-3-(1-((1-methylcyclopentyl)methyl)-1H-pyrazol-4-yl)pyridin-2-yl)-2-methylisoindolin-1-one]
75	CN1Cc2ccc(-c3nc(C#N)c(N)cc3-c3cnn(CC4(C)CCCC4)c3)cc2C1=O [Example 51, 3-amino-6-(2-methyl-3-oxoisoindolin-5-yl)-5-(1-((1-methylcyclopentyl)methyl)-1H-pyrazol-4-yl)picolinonitrile]
40	CN1Cc2ccc(-c3nc(CF)ccc3-c3cnn(CC4(C)CCCC4)c3)cc2C1=O [Example 52, 6-(6-(fluoromethyl)-3-(1-((1-methylcyclopentyl)methyl)-1H-pyrazol-4-yl)pyridin-2-yl)-2-methylisoindolin-1-one]
61	Cc1cc(-c2cnn(CC3(C)CCCC3)c2)c(-c2ccc3c(c2)C(=O)N(C)C3)nc1F [Example 53, 6-(6-fluoro-5-methyl-3-(1-((1-methylcyclopentyl)methyl)-1H-pyrazol-4-yl)pyridin-2-yl)-2-methylisoindolin-1-one]
8	CN1Cc2ncc(-c3nc(C#N)ccc3-c3cnn(CC4(C)CCCC4)c3F)cc2C1=O [Example 54, 5-(5-fluoro-1-((1-methylcyclopentyl)methyl)-1H-pyrazol-4-yl)-6-(6-methyl-5-oxo-6,7-dihydro-5H-pyrrolo[3,4-b]pyridin-3-yl)picolinonitrile]
38	CC1(Cn2cc(-c3cc4c(nc3-c3ccc5c(c3)C(=O)NC5)CCC4)cn2)CCCC1 [Example 55, 6-(3-(1-((1-methylcyclopentyl)methyl)-1H-pyrazol-4-yl)-6,7-dihydro-5H-cyclopenta[b]pyridin-2-yl)isoindolin-1-one]
72	CC1(Cn2cc(-c3cc4c(nc3-c3ccc5c(c3)C(=O)N(CCC#N)C5)CCC4)cn2)CCCC1 [Example 56, 3-(6-(3-(1-((1-methylcyclopentyl)methyl)-1H-pyrazol-4-yl)-6,7-dihydro-5H-cyclopenta[b]pyridin-2-yl)-1-oxoisoindolin-2-yl)propanenitrile]
44	CN1Cc2ccc(-c3nc(F)ccc3-c3cnn(CC4(C)CCCC4)c3F)cc2C1=O [Example 57, 6-(6-fluoro-3-(5-fluoro-1-((1-methylcyclopentyl)methyl)-1H-pyrazol-4-yl)pyridin-2-yl)-2-methylisoindolin-1-one]
35	CN1Cc2ncc(-c3nc(CF)ccc3-c3cnn(CC4(C)CCCC4)c3)cc2C1=O [Example 58, 3-(6-(fluoromethyl)-3-(1-((1-methylcyclopentyl)methyl)-1H-pyrazol-4-yl)pyridin-2-yl)-6-methyl-6,7-dihydro-5H-pyrrolo[3,4-b]pyridin-5-one]
14	CN1Cc2ncc(-c3nc(F)ccc3-c3cnn(CC4(C)CCCC4)c3F)cc2C1=O [Example 59, 3-(6-fluoro-3-(5-fluoro-1-((1-methylcyclopentyl)methyl)-1H-pyrazol-4-yl)pyridin-2-yl)-6-methyl-6,7-dihydro-5H-pyrrolo[3,4-b]pyridin-5-one]
99	CN1C(=O)c2cc(-c3nc(C#N)ccc3-c3cnn(CC4(C)CCCC4)c3)ccc2C1(C)C [Example 60]
59	CN1Cc2ncc(-c3nc4c(cc3-c3cnn(CC5(C)CCCC5)c3)CCC4)cc2C1=O [Example 61, 6-methyl-3-(3-(1-((1-methylcyclopentyl)methyl)-1H-pyrazol-4-yl)-6,7-dihydro-5H-cyclopenta[b]pyridin-2-yl)-6,7-dihydro-5H-pyrrolo[3,4-b]pyridin-5-one]
293	Cc1cc(N)c(-c2cnn(CC3(C)CCCC3)c2)c(-c2ccc3c(c2)C(=O)N(C)C3)n1 [Example 62, 6-(4-amino-6-methyl-3-(1-((1-methylcyclopentyl)methyl)-1H-pyrazol-4-yl)pyridin-2-yl)-2-methylisoindolin-1-one]

Source: US10933056B2, “3-(1H-pyrazol-4-yl)pyridine allosteric modulators of the M4 muscarinic acetylcholine receptor” (Merck Sharp & Dohme Corp., priority 2015, dated 2021)
